Results on 8 molecules are retold here after ChEMBL document CHEMBL5042525, “Activation of E6AP/UBE3A-Mediated Protein Ubiquitination and Degradation Pathways by a Cyclic γ-AA Peptide” (J Med Chem, 2022).

For series [1], the species on record is Homo sapiens. The experiment in a line: Activation of wild type N-terminal Flag-tagged E6AP (unknown origin) mediated UbxD8 substrate ubiquitination in presence of Uba1/Ubch7 at 10 to 100 uM preincubated for 30 mins followed by UB addition incubated for 2 hrs by SDS PAGE based Western blot analysis. Conditions: dose 10-100 µM, time 2.5 hrs.
The species named for series [2] is Homo sapiens. Description: Activation of full length E6AP (unknown origin) self-ubiquitination at 100 uM preincubated for 30 mins followed by UB addition incubated for 2 hrs by SDS PAGE based Western blot analysis. (In general: A western blot detects proteins with antibodies after separation by electrophoresis.)
For series [3], the species on record is Homo sapiens. Description: Activation of wild type N-terminal Flag-tagged E6AP HECT domain (unknown origin) self-ubiquitination assessed as increase in formation of polyubiquitinated HECT in presence of wild type HA-tagged UB at 10 to 100 uM preincubated for 30 mins followed by UB addition incubated for 2 hrs by SDS PAGE based Western blot analysis. The following applies: dose 10-100 µM, time 150.0 min.

A short description of series [4]: Binding affinity to recombinant E6AP HECT domain (unknown origin) expressed in BL21 cells by fluorescence polarization assay. On the set-up: species or system Homo sapiens. On the technique in general: Fluorescence polarisation rises when a labelled molecule tumbles more slowly, as on binding a larger partner.
For series [5], the species on record is Homo sapiens. Description: Activation of wild type N-terminal Flag-tagged E6AP (unknown origin) mediated ubiquitination of p53 substrate at 10 to 100 uM in presence of […] E6 and Uba1/Ubch7 preincubated for 30 min followed by UB addition incubated for 2 hrs by SDS PAGE based Western blot analysis. Conditions: dose 10-100 µM, time 150.0 min.
Series [6] relates to HEK293T. The experiment in a line: Activation of E6AP (unknown origin) in HEK293T cells assessed as increase in ubiquitination level of UbxD8 substrate at 25 to 50 uM preincubated for 14 hrs followed by addition of MG132 incubated for 12 hrs by SDS PAGE based Western blot analysis. The following applies: Homo sapiens, filed as activator, dose 25-50 µM, time 26.0 hrs. Format: cell-based.

The test system of series [7] is HEK293T. The experiment in a line: Activation of E6AP mediated UbxD8 degradation in HEK293T cells at 50 uM preincubated for 14 hrs followed by CHX addition by cycloheximide chase assay. The series is classed as cell-based. Conditions: Homo sapiens, filed as activator.
Series [8] is filed under the species Homo sapiens. The experiment in a line: Activation of wild type N-terminal Flag-tagged E6AP HECT domain (unknown origin) self-ubiquitination in presence of Uba1 at 5 uM preincubated for 30 mins followed by UB addition incubated for 2 hrs by SDS PAGE based Western blot analysis. Conditions: filed as activator, time 2.5 hrs.
The species named for series [9] is Homo sapiens. Description: Activation of wild type N-terminal Flag-tagged E6AP HECT domain (unknown origin) self-ubiquitination in presence of wild type HA-tagged UB at 5 uM preincubated for 30 mins followed by UB addition incubated for 2 hrs by SDS PAGE based Western blot analysis. The following applies: filed as activator, time 150.0 min.
Series [10] is filed under the species Homo sapiens. Description: Activation of E6AP (unknown origin) self-ubiquination in presence of UbcH7 at 5 uM preincubated for 30 mins followed by UB addition incubated for 2 hrs by SDS PAGE based Western blot analysis. Conditions: filed as activator, time 2.5 hrs.
In series [11] the test system is HEK293T. Description: Activation of E6AP mediated HHR23A degradation in HEK293T cells at 1 to 5 uM preincubated for 14 hrs followed by CHX addition by cycloheximide chase assay. The following applies: Homo sapiens, filed as activator, dose 1-5 µM. Format: cell-based.
Series [12] has as its system HEK293T. Description: Activation of E6AP mediated HHR23A degradation in HEK293T cells at 50 uM preincubated for 14 hrs followed by CHX addition by cycloheximide chase assay. The series is classed as cell-based. Conditions: Homo sapiens, filed as activator.
For series [13], the species on record is Homo sapiens. Description: Activation of wild type N-terminal Flag-tagged E6AP (unknown origin) mediated HHR23A substrate ubiquitination in presence of Uba1/Ubch7 preincubated for 30 mins followed by UB addition incubated for 2 hrs by SDS PAGE based Western blot analysis. The following applies: filed as activator, dose 1-100 µM, time 150.0 min.
For series [14], the species on record is Homo sapiens. The experiment in a line: Activation of wild type N-terminal Flag-tagged E6AP (unknown origin) mediated UbxD8 substrate ubiquitination in presence of Uba1/Ubch7 preincubated for 30 mins followed by UB addition incubated for 2 hrs by SDS PAGE based Western blot analysis. The following applies: filed as activator, time 2.5 hrs.
For series [15], the species on record is Homo sapiens. The experiment in a line: Activation of E6AP (unknown origin) self-ubiquination in presence of wild type HA-tagged UB at 5 uM preincubated for 30 mins followed by UB addition incubated for 2 hrs by SDS PAGE based Western blot analysis. Conditions: filed as activator, time 150.0 min.
Series [16] is filed under the species Homo sapiens. The experiment in a line: Activation of E6AP (unknown origin) self-ubiquination in presence of Uba1 at 5 uM preincubated for 30 mins followed by UB addition incubated for 2 hrs by SDS PAGE based Western blot analysis. Conditions: filed as activator, time 2.5 hrs.
For series [17], the species on record is Homo sapiens. The experiment in a line: Activation of wild type N-terminal Flag-tagged E6AP (unknown origin) mediated beta-catenin substrate ubiquitination in presence of Uba1/Ubch7 preincubated for 30 mins followed by UB addition incubated for 2 hrs by SDS PAGE based Western blot analysis. Conditions: filed as activator, dose 1-100 µM, time 150.0 min.
Series [18] is described as follows: Stability of the compound in ammonium bicarbonate buffer at pH 7.8 assessed as pronase (unknown origin)-mediated drug degradation for 24 hrs by HPLC-MS analysis. Conditions: human, pH 7.8, 24 h. Format: ADME.
The nature of series [19]: Stability of the compound in human serum for 24 hrs by HPLC-MS analysis. Format: ADME, cell-free.
The species entered for series [20] is Homo sapiens. Description: Activation of wild type N-terminal Flag-tagged E6AP HECT domain (unknown origin) self-ubiquitination in presence of UbcH7 at 5 uM preincubated for 30 mins followed by UB addition incubated for 2 hrs by SDS PAGE based Western blot analysis. Conditions: filed as activator, time 2.5 hrs.
Series [21] concerns HEK293T. Description: Activation of E6AP (unknown origin) mediated HHR23A substrate ubiquitination in HEK293T cells at 25 to 50 uM preincubated for 14 hrs followed by addition of MG132 incubated for 12 hrs by SDS PAGE based Western blot analysis. Format: cell-based. The following applies: Homo sapiens, filed as activator, dose 25-50 µM, time 26.0 hrs.

Active and inactive are the calls of the source. The calls are words filed in the database; no cut-off is given here.

Turning to `COc1cc(CC(=O)N2CC(=O)N[C@@H](C)CN(C(=O)Cc3cc(OC)cc(OC)c3)CC(=O)N[C@@H](CC(C)C)CN(CC(N)=O)C(=O)CCSCc3ccc(cc3)C(=O)N[C@@H](Cc3ccccc3)CN(C(=O)Cc3ccc4c(c3)OCO4)CC(=O)N[C@@H](Cc3ccccc3)C2)cc(OC)c1`, the result in the series filed under Homo sapiens [1], in the series listed under Homo sapiens [2], in the series listed under Homo sapiens [3] and in the series filed under Homo sapiens [5] was inactive. Besides, the Kd in [4] (read-out: Kd) was 0.0834 µM.

With `COc1cc(CC(=O)N2CC(=O)N[C@@H](Cc3ccccc3)CN(C(=O)CC3CC3)CC(=O)N[C@@H](CC(C)C)CN(CC(N)=O)C(=O)CCSCc3ccc(cc3)C(=O)N[C@@H](CCCCN)CN(C(=O)Cc3ccc4ccccc4c3)CC(=O)N[C@@H](CC(C)C)C2)cc(OC)c1`, the result in the series on HEK293T [6], in the series filed under Homo sapiens [1] (filed as activator), in the series with HEK293T [7], in the series listed under Homo sapiens [8], in the series listed under Homo sapiens [2] (filed as activator) and in the series filed under Homo sapiens [9] was Active. The result in the series filed under Homo sapiens [10], with HEK293T [11], with HEK293T [12], in the series listed under Homo sapiens [3] (filed as activator), in the series listed under Homo sapiens [15] and in the series listed under Homo sapiens [16] was Active. Besides, the outcome in the series filed under Homo sapiens [20] and in the series with HEK293T [21] was Active. For the same molecule, the Activity entry in the series listed under Homo sapiens [13], in the series filed under Homo sapiens [14] and in the series filed under Homo sapiens [17] was “Dose-Dependent Effect” each time. For the same molecule, the Kd in [4] (read-out: Kd) amounted to 0.218 µM. In addition, the outcome in the series listed under Homo sapiens [5] was inactive. Moreover, the Stability entry in [18] and in [19] was “Stable” throughout.

Take `CC(C)C[C@H]1CN(CC(N)=O)C(=O)CCSCc2ccc(cc2)C(=O)N[C@@H](C)CN(C(=O)Cc2ccc3ccccc3c2)CC(=O)N[C@@H](CC(C)C)CN(C(=O)CCc2ccccc2)CC(=O)N[C@@H](Cc2ccccc2)CN(C(=O)Cc2ccc3c(c2)OCO3)CC(=O)N1`: the outcome in the series listed under Homo sapiens [1], in the series filed under Homo sapiens [2], in the series listed under Homo sapiens [3] and in the series filed under Homo sapiens [5] was inactive. Besides, the Kd in series [4] (read-out: Kd) turned out to be 0.187 µM.

Turning to `CC(C)C[C@H]1CN(CC(N)=O)C(=O)CCSCc2ccc(cc2)C(=O)N[C@@H](Cc2ccccc2)CN(C(=O)Cc2ccc3ccccc3c2)CC(=O)N[C@@H](CC(C)C)CN(C(=O)CCC2CCCCC2)CC(=O)N[C@@H](Cc2ccccc2)CN(C(=O)Cc2ccc3c(c2)OCO3)CC(=O)N1`, the outcome in the series listed under Homo sapiens [1], in the series filed under Homo sapiens [2], in the series filed under Homo sapiens [3] and in the series filed under Homo sapiens [5] was inactive. Moreover, the Kd in [4] (read-out: Kd) is 0.0822 µM.

Regarding `CC(C)C[C@H]1CN(C(=O)Cc2ccc3c(c2)OCO3)CC(=O)N[C@@H](CCC(=O)O)CN(C(=O)CCC2CCCCC2)CC(=O)N[C@@H](C)CN(C(=O)CCC(=O)O)CC(=O)N[C@@H](Cc2ccccc2)CN(CC(N)=O)C(=O)CCSCc2ccc(cc2)C(=O)N1`, the outcome in the series listed under Homo sapiens [1], in the series listed under Homo sapiens [2], in the series listed under Homo sapiens [3] and in the series listed under Homo sapiens [5] was inactive. The dissociation constant Kd entry in series [4] is on record as “Not Active”.

Turning to `C[C@H]1CN(C(=O)CCC(=O)O)CC(=O)N[C@@H](Cc2ccccc2)CN(CC(N)=O)C(=O)CCSCc2ccc(cc2)C(=O)N[C@@H](C)CN(C(=O)Cc2ccc3c(c2)OCO3)CC(=O)N[C@@H](CCC(=O)O)CN(C(=O)CC2CC2)CC(=O)N1`, the outcome in the series filed under Homo sapiens [1], in the series listed under Homo sapiens [2], in the series listed under Homo sapiens [3] and in the series filed under Homo sapiens [5] was inactive. Further, in series [4], the Kd entry is reported as “Not Active”.

As to `COc1cc(CC(=O)N2CC(=O)N[C@@H](Cc3ccccc3)CN(C(=O)CC3CC3)CC(=O)N[C@@H](CC(C)C)CN(CC(N)=O)C(=O)CCSCc3ccc(cc3)C(=O)N[C@@H](CCC(=O)O)CN(C(=O)Cc3ccc4c(c3)OCO4)CC(=O)N[C@@H](CC(C)C)C2)cc(OC)c1`, the outcome in the series listed under Homo sapiens [1], in the series filed under Homo sapiens [2], in the series listed under Homo sapiens [3] and in the series listed under Homo sapiens [5] was inactive. The Kd in [4] (read-out: Kd) is 0.162 µM.

`C[C@H]1CN(C(=O)Cc2ccc3c(c2)OCO3)CC(=O)N[C@@H](Cc2ccccc2)CN(C(=O)Cc2ccc3ccccc3c2)CC(=O)N[C@@H](CCC(=O)O)CN(C(=O)CC2CC2)CC(=O)N[C@@H](Cc2ccccc2)CN(CC(N)=O)C(=O)CCSCc2ccc(cc2)C(=O)N1`: the outcome in the series listed under Homo sapiens [1], in the series filed under Homo sapiens [2], in the series listed under Homo sapiens [3] and in the series filed under Homo sapiens [5] was inactive. The Kd in series [4] (read-out: Kd) turned out to be 0.171 µM.

As a reminder, the Kd is a measure of binding affinity in units of concentration.
